# Where “and” joins values, the source holds several entries; their conditions need not be identical. Equal values may be shown once.
# System: biotinylated monoclonal anti-25OH vitamin D antibody
# Experiment: LOCI 25(OH)D immunoassay: 3-epimer cross-reactivity, no anti-3-epimer antibody added
# Type: binding, sheep
# Settings: for Avg. Cross-reactivity, No anti-3-epimer VD Ab Added: average of ten patient sera spiked with 100 ng/mL 3-epimer vitamin D3
# Protocol: The 25OH Vitamin D (25(OH)D) immunoassay format employed was a homogeneous competitive chemiluminescent immunoassay based on LOCI® assay technology. The assay was performed on the Siemens Dimension® EXL automated integrated clinical chemistry system (Siemens Healthcare Diagnostics Inc., Deerfield, Ill.). The assay measured the total concentration of 25(OH)D2 and/or 25(OH)D3 in serum and plasma samples. The LOCI® assay reagents included a releasing reagent, two synthetic bead reagents and a biotinylated monoclonal anti-25OH vitamin D antibody reagent. The first bead reagent (designated “Sensibeads”) was coated with streptavidin and contained a photosensitive dye. The second bead reagent (designated “Chemibeads”) was coated with a 25(OH)D3 analog and contained chemiluminescent dye. Sample was incubated with the releasing reagent to release 25(OH)D molecules including 3-epimeric compounds from vitamin D binding proteins. The reaction mixture was then incubated with biotinylated antibody to form a 25(OH)D-biotinylated antibody complex. […] Chemibeads were added to bind excess free biotinylated antibody. Sensibeads were then added to bind to the biotin portion of the biotinylated antibody. Aggregates of Chemibead-analog/antibody-biotin/streptavidin-Sensibeads were formed as a result. Illumination of the reaction mixture with light at 680 nm generates singlet oxygen from Sensibeads, which diffused into the Chemibeads and triggered a chemiluminescent reaction. The resulting chemiluminescent signal was measured at 612 nm and is inversely proportional to the concentration of total 25(OH)D in the sample.
# The effect of adding anti-3-epimer-VD antibody 8F10.1 (anti-3-epimer VD Ab) on the 3-epimer cross-reactivity for the assay is shown in Table 1. […] The 3-epimer cross-reactivity was calculated by the difference between 25(OH)D2 or 25(OH)D3 values with and without the spiked 3-epimer compound divided by the amount of added 3-epimer compound.
smiles,measurement,setting,value
"C=C1CC[C@@H](O)C/C1=C/C=C1\CCC[C@]2(C)[C@@H]([C@H](C)CCCC(C)(C)O)CC[C@@H]12 [3-epimer D3, 3-epi-25-hydroxyvitamin D3]","Avg. Cross-reactivity, No anti-3-epimer VD Ab Added",,13.7%
same,"Avg. Cross-reactivity, No anti-3-epimer VD Ab Added",listed as 3-epimer vitamin D3 compound,13.7%
same,"Cross-Reactivity, No anti-3-epimer VD Ab Added",individual patient sera (Sample ID 1-10) spiked with 100 ng/mL 3-epimer vitamin D3,17.9% (2×) and 11.9% and 12.6% and 16.1% and 10.2% and 9.1% and 10.5% and 15.3% and 15.5%

# From patent publication US10106498B2, “Compositions relating to vitamin D” (Siemens Healthcare Diagnostics Inc., priority 2014, dated 2018)
